Measurements as given in PubChem BioAssay (NCI).
Several values for one entry are separate records, joined by “and”; a condition that tells them apart may be missing. Equal values may be shown once.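 Protocol summary: plate cells (96-well), add compound at 5 concentrations, incubate 48 h, interpolate endpoints linearly. At the GI50, growth is halved. TGI: concentration producing complete growth inhibition.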 Where a SMILES comes first, the peptide text is derived from it. The star is where a group is joined. Boc = CC(C)(C)OC(=O)*

What follows are molecules tested on IGROV1 ovarian (assay: DTP human tumour cell line panel, 48 h).

| SMILES | TGI | GI50 |
| --- | --- | --- |
| [N-]=[N+]=N/C1=C/CCCCC(=O)C1 | > 100 µM |  |
| CC(C)OC(=O)[C@H](C)NP(=O)(OC[C@H]1O[C@@H](n2ccc(=O)[nH]c2=O)[C@](C)(F)[C@@H]1O)Oc1ccccc1 (stereo partly drawn) | > 100 µM | > 100 µM |
| O=C(O)c1ccc(C(=O)O)c2c(C(=O)O)ccc(C(=O)O)c12 | > 100 µM |  |
| Cc1cc(N(CCCNc2ccnc3cc(Cl)ccc23)Cc2ccc3c(c2)OCO3)nc(N2CCOCC2)n1 | 3.47 µM | 0.338 µM |
| O=C(/C=C/C=C/c1ccccc1)c1ccccc1 | 31.2 µM |  |
| CCOC(=O)C1SC(=Nc2ccccc2)N=C1C (stereo not drawn) | > 100 µM |  |
| C=CCN1CCC23c4c5ccc(O)c4OC2C(=NN=C2CCC4(O)C6Cc7ccc(O)c8c7C4(CCN6CC=C)C2O8)CCC3(O)C1C5 (stereo not drawn) | > 100 µM |  |
| CN(C)CCNC(=O)c1cccc2c(Nc3ccc(S(=O)(=O)N=C(N)N)cc3)c3ccccc3nc12 | 45 µM |  |
| COC(=O)c1ccc(-c2c(C#N)[n+](=O)c3cc(Cl)c(Cl)cc3n2[O-])cc1 | > 100 µM | 3.39 µM |
| COC(=O)C(C)NC(=O)C(CCSC)NC(=O)C(Cc1ccccc1)NC(=O)OC(C)(C)C (stereo not drawn) (Boc-Phe-Met-Ala-OMe; configuration not given here) | > 100 µM | 53.5 µg/mL |
| C/C(=N\NC(=S)N1CCCCCC1)c1ccccn1 | 2.66 µM and 6.59 µM | < 0.0122 µM |
| CC(C)=CCc1cc2c(cc1O)OC[C@H]1c3cc4c(cc3O[C@@H]21)OCO4 | > 100 µM |  |
| COc1ccc(Cn2c(N)c(S(=O)(=O)c3ccc(Cl)cc3)c3nc(C#N)c(C#N)nc32)cc1 | > 50 µM | 21.6 µM |

What follows are molecules tested on EKVX NSCLC (assay: DTP human tumour cell line panel, 48 h).

| SMILES | GI50 | TGI |
| --- | --- | --- |
| Cn1c(Nc2ccc(C(F)(F)F)cc2)nc2cc(Oc3ccnc(-c4ncc(C(F)(F)F)[nH]4)c3)ccc21 | 2.33 µM | 19.1 µM |
| C[C@@]12CCC[C@@](C)(C(=O)O)C1CC[C@]13CC(=O)[C@](CO)(C1)[C@@H](O)CC32 (stereo partly drawn) | > 100 µM | > 100 µM |
| CN(C)C/C=C/C(=O)Nc1cc2c(Nc3ccc(F)c(Cl)c3)ncnc2cc1O[C@H]1CCOC1 | < 0.01 µM and 0.003 µM | 11.3 µM and > 10 µM |
| Cn1cnnc1Sc1c([N+](=O)[O-])ncn1C |  | > 100 µM |
| C=CCC1(CN(C)C)CC/C(=C\c2ccc(Cl)cc2)C1=O (stereo not drawn) |  | > 100 µM |
| COC(=O)c1cc2c(s1)-c1nccc3c1c(nc1ccccc13)C2=O | > 100 µM | > 100 µM |
| C[Si](C)(C)/C(I)=C/CO |  | 71.7 µM |
| Oc1ccc(Nc2c3ccccc3nc3occ(Cl)c23)cc1 | 14.8 µM | > 100 µM |
| CCCCCCCN=C(N)c1ccc(N2CCN(c3ccc(C(N)=NCCCCCCC)cc3)CC2)cc1 | 0.175 µM | 2.94 µM |
| C[Si](C)(C)/C(Br)=C\CCN1C(=O)CCC1=O |  | > 100 µM |
| Cc1ccc(S(=O)OCc2c(C)c(C)c(COS(=O)c3ccc(C)cc3)c(C)c2C)cc1 (stereo not drawn) |  | > 100 µM |
| C[C@]12CCC(=O)C=C1CC[C@@H]1C2CC[C@]2(C)Nc3[nH]ncc3CC12 (stereo partly drawn) |  | > 100 µM |
| CCOC(=O)/C=C/c1ccc(C#Cc2ccccc2)cc1 | 0.0608 µM | 43.1 µM |
| O=[P@@]1(c2ccccc2)O[C@H](COCc2ccccc2)[C@@H](OCc2ccccc2)[C@H](OCc2ccccc2)[C@H]1NCc1ccccc1 | 2.71 µM | > 100 µM |
| C[C@H]1CN[C@@H]2[C@@H](C)[C@H]3[C@@H](C[C@H]4[C@@H]5CC[C@H]6C[C@@H](N)CC[C@]6(C)[C@H]5CC[C@]34C)O[C@@]2(O)C1 |  | 14.9 µM |
| CSc1ccccc1C#C/C=C\C#Cc1ccccc1N | 16.9 µM | 57.4 µM |
| COc1ccc(/C(=C\C=C(C#N)C#N)Sc2nc3ccccc3s2)cc1 | 10.5 µM | 22 µM |

| SMILES | GI50 | TGI |
| --- | --- | --- |
| CCN(CC)CCSc1c2ccccc2nc2c(OC)ccc(OC)c12 |  | > 100 µM |
| CCOC(=O)c1ccc(N=Nc2cc(C(=O)OCC)ccc2O)cc1 |  | 41.8 µM |
| Cc1cc2cc3c(=O)[nH]c(=O)[nH]c3nc2cc1C |  | > 100 µM |
| [N-]=[N+]=N/C1=C/CCCCC(=O)C1 |  | > 100 µM |
| CC(C)OC(=O)[C@H](C)NP(=O)(OC[C@H]1O[C@@H](n2ccc(=O)[nH]c2=O)[C@](C)(F)[C@@H]1O)Oc1ccccc1 (stereo partly drawn) | > 100 µM | > 100 µM |
| O=C(O)c1ccc(C(=O)O)c2c(C(=O)O)ccc(C(=O)O)c12 |  | > 100 µM |
| Cc1cc(N(CCCNc2ccnc3cc(Cl)ccc23)Cc2ccc3c(c2)OCO3)nc(N2CCOCC2)n1 | 0.299 µM | > 100 µM |
| O=C(/C=C/C=C/c1ccccc1)c1ccccc1 |  | 28.6 µM |
| CCOC(=O)C1SC(=Nc2ccccc2)N=C1C (stereo not drawn) |  | > 100 µM |
| C=CCN1CCC23c4c5ccc(O)c4OC2C(=NN=C2CCC4(O)C6Cc7ccc(O)c8c7C4(CCN6CC=C)C2O8)CCC3(O)C1C5 (stereo not drawn) |  | > 100 µM |
| CN(C)CCNC(=O)c1cccc2c(Nc3ccc(S(=O)(=O)N=C(N)N)cc3)c3ccccc3nc12 |  | 55.3 µM |
| COC(=O)c1ccc(-c2c(C#N)[n+](=O)c3cc(Cl)c(Cl)cc3n2[O-])cc1 | 21.7 µM | 47.8 µM |
| C/C(=N\NC(=S)N1CCCCCC1)c1ccccn1 | 0.053 µM | 1.84 µM and 3.34 µM |
| CC(C)=CCc1cc2c(cc1O)OC[C@H]1c3cc4c(cc3O[C@@H]21)OCO4 |  | 76.9 µM |
| Cn1cc(-c2csc(-c3c[nH]c4ccc(Br)cc34)n2)c2cnccc21 | 2.5 µM | 6.37 µM |
| COc1ccc(Cn2c(N)c(S(=O)(=O)c3ccc(Cl)cc3)c3nc(C#N)c(C#N)nc32)cc1 | > 50 µM | > 50 µM |

The molecules below were run on HL-60(TB) leukemia (assay: DTP human tumour cell line panel, 48 h).

| SMILES | GI50 | TGI |
| --- | --- | --- |
| Cn1c(Nc2ccc(C(F)(F)F)cc2)nc2cc(Oc3ccnc(-c4ncc(C(F)(F)F)[nH]4)c3)ccc21 | 0.365 µM | 7.06 µM |
| C[C@@]12CCC[C@@](C)(C(=O)O)C1CC[C@]13CC(=O)[C@](CO)(C1)[C@@H](O)CC32 (stereo partly drawn) | > 100 µM | > 100 µM |
| CN(C)C/C=C/C(=O)Nc1cc2c(Nc3ccc(F)c(Cl)c3)ncnc2cc1O[C@H]1CCOC1 | 1.45 µM and 0.599 µM | 5.03 µM and 3.75 µM |
| C=CCC1(CN(C)C)CC/C(=C\c2ccc(Cl)cc2)C1=O (stereo not drawn) |  | 74.4 µM |
| COC(=O)c1cc2c(s1)-c1nccc3c1c(nc1ccccc13)C2=O | 12.3 µM | > 100 µM |
| C[Si](C)(C)/C(Br)=C\CCN1C(=O)CCC1=O |  | > 100 µM |
| Cc1ccc(S(=O)OCc2c(C)c(C)c(COS(=O)c3ccc(C)cc3)c(C)c2C)cc1 (stereo not drawn) |  | > 100 µM |
| C[C@]12CCC(=O)C=C1CC[C@@H]1C2CC[C@]2(C)Nc3[nH]ncc3CC12 (stereo partly drawn) |  | > 100 µM |
| CCOC(=O)/C=C/c1ccc(C#Cc2ccccc2)cc1 | > 100 µM | > 100 µM |
| O=[P@@]1(c2ccccc2)O[C@H](COCc2ccccc2)[C@@H](OCc2ccccc2)[C@H](OCc2ccccc2)[C@H]1NCc1ccccc1 | 2.15 µM | 6.09 µM |
| C[C@H]1CN[C@@H]2[C@@H](C)[C@H]3[C@@H](C[C@H]4[C@@H]5CC[C@H]6C[C@@H](N)CC[C@]6(C)[C@H]5CC[C@]34C)O[C@@]2(O)C1 |  | 4.08 µM |
| CSc1ccccc1C#C/C=C\C#Cc1ccccc1N | 3.97 µM | > 100 µM |
| CCN(CC)CCSc1c2ccccc2nc2c(OC)ccc(OC)c12 |  | 17.7 µM |
| CCOC(=O)c1ccc(N=Nc2cc(C(=O)OCC)ccc2O)cc1 |  | > 100 µM |
| Cc1cc2cc3c(=O)[nH]c(=O)[nH]c3nc2cc1C |  | > 100 µM |
| [N-]=[N+]=N/C1=C/CCCCC(=O)C1 |  | > 100 µM |
| CC(C)OC(=O)[C@H](C)NP(=O)(OC[C@H]1O[C@@H](n2ccc(=O)[nH]c2=O)[C@](C)(F)[C@@H]1O)Oc1ccccc1 (stereo partly drawn) | > 100 µM | > 100 µM |
| O=C(/C=C/C=C/c1ccccc1)c1ccccc1 |  | 28.6 µM |
| CCOC(=O)C1SC(=Nc2ccccc2)N=C1C (stereo not drawn) |  | > 100 µM |
| CN(C)CCNC(=O)c1cccc2c(Nc3ccc(S(=O)(=O)N=C(N)N)cc3)c3ccccc3nc12 |  | 2.59 µM |
| COC(=O)C(C)NC(=O)C(CCSC)NC(=O)C(Cc1ccccc1)NC(=O)OC(C)(C)C (stereo not drawn) (Boc-Phe-Met-Ala-OMe; configuration not given here) | 30.2 µg/mL | 64.6 µg/mL and > 100 µM |
| C/C(=N\NC(=S)N1CCCCCC1)c1ccccn1 |  | 0.185 µM |
| CC(C)=CCc1cc2c(cc1O)OC[C@H]1c3cc4c(cc3O[C@@H]21)OCO4 |  | 71.9 µM |
| Cn1cc(-c2csc(-c3c[nH]c4ccc(Br)cc34)n2)c2cnccc21 | 2.11 µM | 7.91 µM |
| COc1ccc(Cn2c(N)c(S(=O)(=O)c3ccc(Cl)cc3)c3nc(C#N)c(C#N)nc32)cc1 | > 50 µM | > 50 µM |

Each molecule was assayed on RPMI-8226 leukemia (assay: DTP human tumour cell line panel, 48 h).

| SMILES | GI50 [µM] | TGI [µM] |
| --- | --- | --- |
| Cn1c(Nc2ccc(C(F)(F)F)cc2)nc2cc(Oc3ccnc(-c4ncc(C(F)(F)F)[nH]4)c3)ccc21 | 1.49 | 15.2 |
| C[C@@]12CCC[C@@](C)(C(=O)O)C1CC[C@]13CC(=O)[C@](CO)(C1)[C@@H](O)CC32 (stereo partly drawn) | > 100 | > 100 |
